From patent US20050182065A1, “Method of stimulating hair growth” (priority 2004, published 2005)

Columns and labels:
C3H/HeN mice [1] = assay: Telogen Conversion Assay; assay type: in vivo; settings: for Results: number of days following initiation of treatment when hair growth appeared in 50% of the mice: topical once daily for 5 days
Excerpt: The Telogen Conversion Assay measures the potential of a compound (hereinafter referred to as the “test compound”) to convert mice in the resting stage of the hair growth cycle (“telogen”) to the active stage of the hair growth cycle (“anagen”). This assay takes advantage of the fact that the fur (i.e. hair) of 40-day-old C3H/HeN mice is in the telogen phase. This phase usually continues until about 75 days of age, at which point, anagen naturally occurs in these animals. In this assay, selected areas of 40-day-old mice (approximate) are shaved, contacted with a test agent, or a control, and the difference in the rate of hair growth is measured (i.e. induction of the anagen phase). The first sign of anagen is the darkening of skin color as melanocytes in the follicles start to synthesize melanin, in preparation for the production of pigmented hairs.
Female C3H/HeN mice, 7 weeks old (Charles River Laboratories, Raleigh, N.C.) were used for the study. Fur was clipped from the dorsal region of the mice prior to initiation of the study. Only mice with pink skin, a visual indication of the telogen phase, were selected for inclusion in the study.
Test compounds (from Table A) were dissolved in a vehicle consisting of propylene glycol (30%) and ethanol (70%). A test compound dissolved in vehicle, or a vehicle control (30/70 propylene glycol/ethanol, unless otherwise specified) was applied topically to the clipped dorsal region of the mice in each test group (7-10 mice) in a volume of 20 μl/cm^2. Treatments were applied once daily for 5 days.
The treatment area was observed and graded for signs of hair growth. The hair growth response was quantified by recording, for each animal, the day on which signs of hair growth first appeared over the treated area. The first sign of anagen was the darkening of skin color as melanocytes in the follicles started to synthesize melanin. The response time was measured as the number of days between initiation of treatment and when hair growth was present in 50% of the mice in a given group.
The results are reported as the number of days following initiation of treatment when hair growth appeared in 50% of the mice in a given group.

C3H/HeN mice [2] = assay: Telogen Conversion Assay; assay type: in vivo; settings: Experiment 8; for Results: number of days following initiation of treatment when hair growth appeared in 50% of the mice: topical once daily for 5 days, solvent polyethylene glycol 30 v/v %, ethanol 30 v/v %, transcutanol 40 v/v %, vehicle 28; for Induction of anagen (conclusion in words): transcutol, ethanol, polypropylene glycol vehicle
[3] = Experiment 9, 0.03 w/v %, propylene glycol 30%/ethanol 70%, terminated early
[4] = Experiment 9, 0.3 w/v %, propylene glycol 30%/ethanol 70%, terminated early
[5] = Experiment 9, 1.0 w/v %, propylene glycol 30%/ethanol 70%, terminated early
[6] = Experiment 10, 0.1 w/v %, propylene glycol 30%/ethanol 70%, terminated early
[7] = Experiment 10, 0.3 w/v %, propylene glycol 30%/ethanol 70%, terminated early
[8] = Experiment 15, 0.3 w/v %, propylene glycol 30%/ethanol 70%, vehicle >30
[9] = Experiment 15, 1.0 w/v %, propylene glycol 30%/ethanol 70%, vehicle >30
[10] = Experiment 15, terminated early

Cn1nc(O[C@@H]2c3cc(S(=O)(=O)c4cccc(O)c4)ccc3OC(C)(C)[C@@]2(C)O)ccc1=O [Compound #1, (3S,4R)-3,4-dihydro-4-(2,3-dihydro-2-methyl-3-oxopyridazin-6-yl)oxy-3-hydroxy-6-(3-hydroxyphenyl)sulphonyl-2,2,3-trimethyl-2H-benzo[b]pyran]
Relative efficacy in the telogen conversion assay (summary) (C3H/HeN mice [1]; 15 experiments, compared with the other potassium channel openers of Table A): showed the highest relative efficacy in the model | Results: number of days following initiation of treatment when hair growth appeared in 50% of the mice (C3H/HeN mice [1]; Experiment 1, 1.0 w/v %, propylene glycol 30%/ethanol 70%, terminated early): >35 days | Induction of anagen (conclusion in words) (C3H/HeN mice [1]; Experiment 2): exhibited signs of anagen sooner than those receiving Compound #6 | Results: number of days following initiation of treatment when hair growth appeared in 50% of the mice (C3H/HeN mice [1]; Experiment 2, 0.3 w/v %, propylene glycol 30%/ethanol 70%, vehicle 25): 11 days | Results: number of days following initiation of treatment when hair growth appeared in 50% of the mice (C3H/HeN mice [1]; Experiment 2, 1.0 w/v %, propylene glycol 30%/ethanol 70%, vehicle 25): 11 days | Results: number of days following initiation of treatment when hair growth appeared in 50% of the mice (C3H/HeN mice [1]; Experiment 3, 0.1 w/v %, propylene glycol 30%/ethanol 70%, terminated early): >35 days | Results: number of days following initiation of treatment when hair growth appeared in 50% of the mice (C3H/HeN mice [1]; Experiment 3, 0.3 w/v %, propylene glycol 30%/ethanol 70%, terminated early): >35 days | Results: number of days following initiation of treatment when hair growth appeared in 50% of the mice (C3H/HeN mice [1]; Experiment 3, 1.0 w/v %, propylene glycol 30%/ethanol 70%, terminated early): >35 days | Results: number of days following initiation of treatment when hair growth appeared in 50% of the mice (C3H/HeN mice [1]; Experiment 4, 0.3 w/v %, propylene glycol 30%/ethanol 70%, vehicle >33): 26 days | Results: number of days following initiation of treatment when hair growth appeared in 50% of the mice (C3H/HeN mice [1]; Experiment 4, 1.0 w/v %, propylene glycol 30%/ethanol 70%, vehicle >33): 26 days | Induction of anagen (conclusion in words) (C3H/HeN mice [1]; Experiment 4, terminated early): induced anagen at each of the test concentrations | Results: number of days following initiation of treatment when hair growth appeared in 50% of the mice (C3H/HeN mice [1]; Experiment 5, 0.03 w/v %, propylene glycol 30%/ethanol 70%, vehicle >35): >35 days | Results: number of days following initiation of treatment when hair growth appeared in 50% of the mice (C3H/HeN mice [1]; Experiment 5, 0.1 w/v %, propylene glycol 30%/ethanol 70%, vehicle >35): >35 days | Results: number of days following initiation of treatment when hair growth appeared in 50% of the mice (C3H/HeN mice [1]; Experiment 5, 0.3 w/v %, propylene glycol 30%/ethanol 70%, vehicle >35): >35 days | Results: number of days following initiation of treatment when hair growth appeared in 50% of the mice (C3H/HeN mice [1]; Experiment 6, 0.003 w/v %, propylene glycol 30%/ethanol 70%, vehicle >35): >35 days | Results: number of days following initiation of treatment when hair growth appeared in 50% of the mice (C3H/HeN mice [1]; Experiment 6, 0.03 w/v %, propylene glycol 30%/ethanol 70%, vehicle >35): >35 days | Results: number of days following initiation of treatment when hair growth appeared in 50% of the mice (C3H/HeN mice [1]; Experiment 6, 0.3 w/v %, propylene glycol 30%/ethanol 70%, vehicle >35): 28 days | Induction of anagen (conclusion in words) (C3H/HeN mice [1]; Experiment 6, terminated early, up to day 35): induced anagen despite the early termination of the experiment | Results: number of days following initiation of treatment when hair growth appeared in 50% of the mice (C3H/HeN mice [1]; Experiment 7, 0.003 w/v %, propylene glycol 30%/ethanol 70%, vehicle 29): 26 days | Results: number of days following initiation of treatment when hair growth appeared in 50% of the mice (C3H/HeN mice [1]; Experiment 7, 0.03 w/v %, propylene glycol 30%/ethanol 70%, vehicle 29): 24 days | Results: number of days following initiation of treatment when hair growth appeared in 50% of the mice (C3H/HeN mice [1]; Experiment 7, 0.3 w/v %, propylene glycol 30%/ethanol 70%, vehicle 29): 19 days | Induction of anagen (conclusion in words) (C3H/HeN mice [1]; Experiment 7, proceeded to completion): induced anagen at all of the concentrations tested | Results: number of days following initiation of treatment when hair growth appeared in 50% of the mice (C3H/HeN mice [1]; Experiment 8, 1.0 w/v %, propylene glycol 30%/ethanol 70%, vehicle >35): 18 days | Results: number of days following initiation of treatment when hair growth appeared in 50% of the mice (C3H/HeN mice [1]; [3]): >33 days | Results: number of days following initiation of treatment when hair growth appeared in 50% of the mice (C3H/HeN mice [1]; [4]): >33 days | Results: number of days following initiation of treatment when hair growth appeared in 50% of the mice (C3H/HeN mice [1]; [5]): >33 days | Results: number of days following initiation of treatment when hair growth appeared in 50% of the mice (C3H/HeN mice [1]; [6]): >34 days | Results: number of days following initiation of treatment when hair growth appeared in 50% of the mice (C3H/HeN mice [1]; [7]): >34 days | Induction of anagen (conclusion in words) (C3H/HeN mice [1]; Experiment 11): induced anagen | Results: number of days following initiation of treatment when hair growth appeared in 50% of the mice (C3H/HeN mice [1]; Experiment 11, 0.3 w/v %, propylene glycol 30%/ethanol 70%, vehicle 56): 25 days | Induction of anagen (conclusion in words) (C3H/HeN mice [1]; Experiment 12): did not induce anagen | Results: number of days following initiation of treatment when hair growth appeared in 50% of the mice (C3H/HeN mice [1]; Experiment 12, 1.0 w/v %, propylene glycol 30%/ethanol 70%, vehicle 37): 39 days | Induction of anagen (conclusion in words) (C3H/HeN mice [1]; Experiment 13): induced anagen | Results: number of days following initiation of treatment when hair growth appeared in 50% of the mice (C3H/HeN mice [1]; Experiment 13, 1.0 w/v %, propylene glycol 30%/ethanol 70%, vehicle 28): 14 days | Induction of anagen (conclusion in words) (C3H/HeN mice [1]; Experiment 14): induced anagen | Results: number of days following initiation of treatment when hair growth appeared in 50% of the mice (C3H/HeN mice [1]; Experiment 14, 1.0 w/v %, propylene glycol 30%/ethanol 70%, vehicle 29): 25 days | Results: number of days following initiation of treatment when hair growth appeared in 50% of the mice (C3H/HeN mice [1]; [8]): 16 days | Results: number of days following initiation of treatment when hair growth appeared in 50% of the mice (C3H/HeN mice [1]; [9]): 23 days | Induction of anagen (conclusion in words) (C3H/HeN mice [1]; [10]): induced anagen at both of the concentrations tested | Results: number of days following initiation of treatment when hair growth appeared in 50% of the mice (C3H/HeN mice [2]; 0.3 w/v %): 21 days | Results: number of days following initiation of treatment when hair growth appeared in 50% of the mice (C3H/HeN mice [2]; 1.0 w/v %): 21 days | Induction of anagen (conclusion in words) (C3H/HeN mice [2]): exhibited activity at all doses tested in this vehicle

Cn1nc(O[C@@H]2c3cc(S(=O)(=O)c4ccccc4O)ccc3OC(C)(C)[C@@]2(C)O)ccc1=O [Compound #7]
Results: number of days following initiation of treatment when hair growth appeared in 50% of the mice (C3H/HeN mice [1]; [3]): >33 days | Results: number of days following initiation of treatment when hair growth appeared in 50% of the mice (C3H/HeN mice [1]; [4]): >33 days | Results: number of days following initiation of treatment when hair growth appeared in 50% of the mice (C3H/HeN mice [1]; [5]): >33 days | Results: number of days following initiation of treatment when hair growth appeared in 50% of the mice (C3H/HeN mice [1]; [6]): >34 days | Results: number of days following initiation of treatment when hair growth appeared in 50% of the mice (C3H/HeN mice [1]; Experiment 10, 0.1 w/v %, solvent polyethylene glycol 30 v/v %, ethanol 30 v/v %, transcutanol 40 v/v %, terminated early): >34 days | Results: number of days following initiation of treatment when hair growth appeared in 50% of the mice (C3H/HeN mice [1]; [7]): >34 days | Results: number of days following initiation of treatment when hair growth appeared in 50% of the mice (C3H/HeN mice [1]; Experiment 10, 0.3 w/v %, solvent polyethylene glycol 30 v/v %, ethanol 30 v/v %, transcutanol 40 v/v %, terminated early): >34 days | Results: number of days following initiation of treatment when hair growth appeared in 50% of the mice (C3H/HeN mice [1]; Experiment 15, 0.03 w/v %, propylene glycol 30%/ethanol 70%, vehicle >30): >30 days | Results: number of days following initiation of treatment when hair growth appeared in 50% of the mice (C3H/HeN mice [1]; [8]): >30 days | Results: number of days following initiation of treatment when hair growth appeared in 50% of the mice (C3H/HeN mice [1]; [9]): >30 days | Induction of anagen (conclusion in words) (C3H/HeN mice [1]; [10]): showed no effect at the time of termination | Results: number of days following initiation of treatment when hair growth appeared in 50% of the mice (C3H/HeN mice [2]; 0.3 w/v %): 21 days | Results: number of days following initiation of treatment when hair growth appeared in 50% of the mice (C3H/HeN mice [2]; 1.0 w/v %): 21 days | Induction of anagen (conclusion in words) (C3H/HeN mice [2]): did exhibit activity
